Source: ChEMBL document CHEMBL5257099, “Design, synthesis and bioactivity evaluations of 8-substituted-quinoline-2-carboxamide derivatives as novel histone deacetylase (HDAC) inhibitors” (Bioorg Med Chem, 2023)

Key:
Histone deacetylase = assay: Inhibition of HDAC in human HeLa nuclear extract using Boc-Lys(Ac)-AMC or Boc-Lys(Tfa)-AMC as substrate preincubated for 5 mins followed by substrate addition and measured after 30 mins by fluorescence assay; assay type: subcellular, Nucleus
Histone deacetylase 1 = Histone deacetylase 1 (Homo sapiens, UniProt Q13547); assay: Inhibition of HDAC1 (unknown origin) using Boc-Lys(Ac)-AMC or Boc-Lys(Tfa)-AMC as substrate preincubated for 5 mins followed by substrate addition and measured after 2 hrs by fluorescence assay
Histone deacetylase 1, sequence (Q13547 whole entry): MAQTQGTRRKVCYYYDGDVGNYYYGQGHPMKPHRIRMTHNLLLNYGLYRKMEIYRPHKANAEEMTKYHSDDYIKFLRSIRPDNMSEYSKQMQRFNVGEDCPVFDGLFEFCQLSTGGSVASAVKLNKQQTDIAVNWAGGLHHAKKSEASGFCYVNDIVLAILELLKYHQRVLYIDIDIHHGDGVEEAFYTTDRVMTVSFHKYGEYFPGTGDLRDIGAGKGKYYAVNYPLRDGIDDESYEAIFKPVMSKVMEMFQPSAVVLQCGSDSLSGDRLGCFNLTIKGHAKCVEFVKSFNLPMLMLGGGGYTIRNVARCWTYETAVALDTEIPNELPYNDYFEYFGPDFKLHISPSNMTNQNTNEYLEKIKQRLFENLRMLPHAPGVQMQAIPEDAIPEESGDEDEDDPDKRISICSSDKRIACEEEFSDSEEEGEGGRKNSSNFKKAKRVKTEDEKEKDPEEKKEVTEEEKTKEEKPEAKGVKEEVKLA

Histone deacetylase 2 = Histone deacetylase 2 (Homo sapiens, UniProt Q92769); assay: Inhibition of HDAC2 (unknown origin) using Boc-Lys(Ac)-AMC or Boc-Lys(Tfa)-AMC as substrate preincubated for 5 mins followed by substrate addition and measured after 1 hr by fluorescence assay
Histone deacetylase 2, sequence (Q92769 whole entry): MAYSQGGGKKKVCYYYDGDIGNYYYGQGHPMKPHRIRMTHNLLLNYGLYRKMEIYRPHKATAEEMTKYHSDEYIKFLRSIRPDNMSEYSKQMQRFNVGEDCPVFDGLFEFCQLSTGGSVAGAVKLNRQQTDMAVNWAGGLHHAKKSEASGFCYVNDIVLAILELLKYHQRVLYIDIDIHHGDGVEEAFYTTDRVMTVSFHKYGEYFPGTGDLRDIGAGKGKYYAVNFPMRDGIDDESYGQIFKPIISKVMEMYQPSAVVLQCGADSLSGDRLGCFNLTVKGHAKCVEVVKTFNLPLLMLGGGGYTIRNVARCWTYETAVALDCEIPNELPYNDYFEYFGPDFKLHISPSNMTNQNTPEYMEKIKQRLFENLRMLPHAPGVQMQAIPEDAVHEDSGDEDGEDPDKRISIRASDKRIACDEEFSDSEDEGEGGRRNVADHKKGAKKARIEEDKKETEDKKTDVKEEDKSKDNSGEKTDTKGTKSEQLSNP

[1] = molecular target: T1, Protein deacetylase HDAC6 (Homo sapiens, UniProt Q9UBN7); assay: Inhibition of HDAC6 (unknown origin) using Boc-Lys(Ac)-AMC or Boc-Lys(Tfa)-AMC as substrate preincubated for 5 mins followed by substrate addition and measured after 2 hrs by fluorescence assay
T1 sequence (Q9UBN7 whole entry): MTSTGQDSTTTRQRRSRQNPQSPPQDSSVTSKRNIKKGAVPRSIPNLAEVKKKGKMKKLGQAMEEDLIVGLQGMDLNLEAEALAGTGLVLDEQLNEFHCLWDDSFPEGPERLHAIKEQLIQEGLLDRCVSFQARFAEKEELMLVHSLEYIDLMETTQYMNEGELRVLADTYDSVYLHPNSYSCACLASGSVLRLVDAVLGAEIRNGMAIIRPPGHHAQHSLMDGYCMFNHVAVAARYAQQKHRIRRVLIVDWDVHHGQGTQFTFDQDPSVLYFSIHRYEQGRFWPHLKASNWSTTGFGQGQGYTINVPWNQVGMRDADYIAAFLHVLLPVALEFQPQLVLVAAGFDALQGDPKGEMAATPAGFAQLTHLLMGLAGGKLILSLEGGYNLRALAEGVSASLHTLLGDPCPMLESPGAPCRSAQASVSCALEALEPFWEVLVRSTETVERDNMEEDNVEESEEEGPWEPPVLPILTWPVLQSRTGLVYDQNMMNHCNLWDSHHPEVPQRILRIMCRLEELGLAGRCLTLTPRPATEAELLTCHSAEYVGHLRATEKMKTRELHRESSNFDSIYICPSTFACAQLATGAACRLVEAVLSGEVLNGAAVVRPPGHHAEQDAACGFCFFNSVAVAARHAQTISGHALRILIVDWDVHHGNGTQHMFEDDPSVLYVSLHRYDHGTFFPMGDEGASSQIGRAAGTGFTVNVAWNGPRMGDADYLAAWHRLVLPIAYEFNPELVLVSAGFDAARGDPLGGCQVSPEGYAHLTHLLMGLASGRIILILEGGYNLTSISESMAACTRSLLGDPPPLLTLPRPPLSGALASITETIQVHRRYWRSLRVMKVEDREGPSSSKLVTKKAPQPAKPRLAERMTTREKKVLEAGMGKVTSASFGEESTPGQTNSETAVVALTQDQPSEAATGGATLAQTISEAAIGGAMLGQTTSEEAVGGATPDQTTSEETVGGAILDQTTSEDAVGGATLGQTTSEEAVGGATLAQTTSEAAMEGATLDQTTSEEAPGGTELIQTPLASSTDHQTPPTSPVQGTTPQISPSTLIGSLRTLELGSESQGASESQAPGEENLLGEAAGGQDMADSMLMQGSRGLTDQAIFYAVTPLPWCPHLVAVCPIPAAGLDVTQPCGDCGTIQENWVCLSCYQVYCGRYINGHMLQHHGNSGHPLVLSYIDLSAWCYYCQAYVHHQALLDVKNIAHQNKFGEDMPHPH

Histone deacetylase 8 = molecular target: T2, Histone deacetylase 8 (Homo sapiens, UniProt Q9BY41); assay: Inhibition of HDAC8 (unknown origin) using Boc-Lys(Ac)-AMC or Boc-Lys(Tfa)-AMC as substrate preincubated for 5 mins followed by substrate addition and measured after 1 hr by fluorescence assay
T2 sequence (Q9BY41 whole entry): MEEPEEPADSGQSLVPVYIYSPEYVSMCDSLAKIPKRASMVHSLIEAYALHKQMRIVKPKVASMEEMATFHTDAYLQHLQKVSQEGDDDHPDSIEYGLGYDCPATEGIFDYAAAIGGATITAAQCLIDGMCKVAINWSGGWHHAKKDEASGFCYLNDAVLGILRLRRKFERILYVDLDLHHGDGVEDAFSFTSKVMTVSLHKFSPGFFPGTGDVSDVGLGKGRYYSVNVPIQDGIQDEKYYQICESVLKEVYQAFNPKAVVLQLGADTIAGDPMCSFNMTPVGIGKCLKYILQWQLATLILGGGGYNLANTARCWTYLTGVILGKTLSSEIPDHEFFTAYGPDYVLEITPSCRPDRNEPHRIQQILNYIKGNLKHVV

Jurkat = assay: Antiproliferative activity against human Jurkat cells assessed as inhibition of cell growth incubated for 48 hrs by CCK-8 assay; assay type: functional, cell-based
SK-N-BE(2) = assay: cells; assay type: functional, cell-based; details: Homo sapiens, SKNBE2, 48 h
Description: Antiproliferative activity against human SK-N-BE(2) cells assessed as inhibition of cell growth incubated for 48 hrs by CCK-8 assay

cells = assay type: functional, cell-based; details: Homo sapiens, KM3, 48 h
Description: Antiproliferative activity against human KM3 cells assessed as inhibition of cell growth incubated for 48 hrs by CCK-8 assay

PC-3 = assay: cells; assay type: functional, cell-based; details: Homo sapiens, PC-3, 48 h
Description: Antiproliferative activity against human PC-3 cells assessed as inhibition of cell growth incubated for 48 hrs by CCK-8 assay

[2] = Metabolic stability in liver microsomes (unknown origin) at 2 mg/ml incubated for 120 mins under shaking condition in presence of NADPH by HPLC method; assay type: ADME, Microsome; details: 2 h
in vitro = details: human, HUVEC cells
Description: Cytotoxicity against HUVEC cells assessed as inhibition of cell growth incubated for 48 hrs by CCK-8 assay

Compound	IC50 (Histone deacetylase) [nM]	IC50 (Histone deacetylase 1) [nM]	IC50 (Histone deacetylase 2) [nM]	IC50 [1] [nM]	IC50 (Histone deacetylase 8) [nM]	IC50 (Jurkat) [nM]	IC50 (SK-N-BE(2)) [nM]	IC50 (cells) [nM]	IC50 (PC-3) [nM]	Stability [2]	IC50 at 48 h (in vitro) [nM]
O=C(CCCCCNC(=O)c1ccc2cccc(OCc3ccc(Br)cc3)c2n1)NO	168										
O=C(NO)c1ccc(CNC(=O)c2ccc3cccc(OCc4ccc(F)cc4)c3n2)cc1	33	70	18	38	> 10000	4260	3770	2830	5660		> 50000
O=C(CCCCCNC(=O)c1ccc2cccc(OCc3ccccc3)c2n1)NO	168										
CC(C)(C)c1ccc(COc2cccc3ccc(C(=O)NCCCCCC(=O)NO)nc23)cc1	187										
COc1ccc(COc2cccc3ccc(C(=O)NCCCCCC(=O)NO)nc23)cc1	127										
O=C(CCCCCCC(=O)Nc1ccccc1)NO [VORINOSTAT]						3620					

Now from value to compound:

IC50 (Histone deacetylase) [nM]	IC50 (Histone deacetylase 1) [nM]	IC50 (Histone deacetylase 2) [nM]	IC50 [1] [nM]	IC50 (Histone deacetylase 8) [nM]	IC50 (Jurkat) [nM]	IC50 (SK-N-BE(2)) [nM]	IC50 (cells) [nM]	IC50 (PC-3) [nM]	Stability [2]	IC50 at 48 h (in vitro) [nM]	Compound
50	98	26	166	> 10000	2900	1210	500	2790	Stable	> 50000	COc1cccc2ccc(C(=O)NCc3ccc(C(=O)NO)cc3)nc12
41	130	72	61	> 10000	4850	4260	1460	5900		> 50000	COc1ccc(COc2cccc3ccc(C(=O)NCc4ccc(C(=O)NO)cc4)nc23)cc1
46	132	43	101	> 10000	4430	3570	1670	4090		> 50000	Cc1ccc(COc2cccc3ccc(C(=O)NCc4ccc(C(=O)NO)cc4)nc23)cc1
54											O=C(NO)c1ccc(CNC(=O)c2ccc3cccc(OCc4ccc(Br)cc4)c3n2)cc1
62											O=C(NO)c1ccc(CNC(=O)c2ccc3cccc(OCc4ccccc4)c3n2)cc1
